Measurements from patent publication US20230021365A1, “COMPOSITION COMPRISING P53-ACTIVATING PEPTIDE” (SUPADELIXIR INC., priority 2019, published 2023).

Tested on: interaction between p53 and POLII
Test: in situ PLA (proximity ligation assay) of physical binding between p53 and RNA Polymerase II (POLII) in HaCaT cells
Format: cell-based, human
Settings: summary statement in the description
Procedure: After treating cells with the peptides of the present invention, the effects thereof on the physical binding between p53 and RNA Polymerase II (POLII) were evaluated through an in situ PLA (proximity ligation assay) method. HaCaT cells (human keratinocytes, CLS) were added at 4.5×10^4 cells per well, along with a DMEM containing 10% fetal bovine serum, to each well of a 24-well microplate and then cultured at 37° C. in a 5% CO2 incubator for 24 hours. The peptide solutions of Example 2 were added thereto so that the concentration of each peptide in the medium was 20 μM, followed by incubating for 1 hour under the same condition. […] The cells of each well were washed with PBS, fixed by treating with 2% formaldehyde for 15 minutes, and then treated with 0.1% TritonX-100 for 5 minutes to increase antibody permeability into the cells. Anti-p53 polyclonal antibody (Abcam, UK) and anti-POLII polyclonal antibody (Santa Cruz, Calif., USA) were added thereto. After the PLA probe was added thereto using the in situ PLA kit (Sigma-Aldrich), hybridization, ligation, amplification and mounting steps were carried out according to the manufacturer's protocol. Each physical interaction between p53 and POLII was quantified by measuring the luminescence signals (PLA signals) detected in each cell with a confocal laser microscope (Olympus fluoview FW1000; Olympus, Tokyo, Japan).

Q: For Leu-Arg-Asp (LRD) [Pep 6], which “activity in decreasing the interaction between p53 and MDM2 and thus increasing the interaction between p53 and POLII” value is on record?
A: particularly excellent activity

Q: For Leu-Gly-Asp (LGD) [Pep 3], which “activity in decreasing the interaction between p53 and MDM2 and thus increasing the interaction between p53 and POLII” value is on record?
A: particularly excellent activity

Q: Which “activity in decreasing the interaction between p53 and MDM2 and thus increasing the interaction between p53 and POLII” value does the source give for Leu-Ser-Asp (LSD) [Pep 2] here?
A: particularly excellent activity

Q: Leu-Lys-Asp (LKD) [Pep 7] was tested. Which “activity in decreasing the interaction between p53 and MDM2 and thus increasing the interaction between p53 and POLII” value did it give?
A: particularly excellent activity

Q: For Leu-Thr-Asp (LTD) [Pep 18], which “activity in decreasing the interaction between p53 and MDM2 and thus increasing the interaction between p53 and POLII” value is on record?
A: particularly excellent activity

Q: Which “activity in decreasing the interaction between p53 and MDM2 and thus increasing the interaction between p53 and POLII” value does the source give for Leu-Tyr-Asp (LYD) [Pep 9] here?
A: particularly excellent activity

Q: Leu-Ala-Asp (LAD) [Pep 4] was tested. Which “activity in decreasing the interaction between p53 and MDM2 and thus increasing the interaction between p53 and POLII” value did it give?
A: particularly excellent activity
